Molecular target: T1, KRAS G12C (GMPPNP-loaded) and cRAF Ras-binding domain (Homo sapiens, UniProt P01116, C118S/C51S/C80L/G12C)
T1 construct: truncated version comprising amino acids 1-169
Experiment: Inhibition of KRAS G12C and cRAF binding (AlphaScreen)
Conditions: KRAS G12C preloaded with GTP analogue GMPPNP, 2 hours preincubation
Summary of the method: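 AlphaScreen used biotin-AviTag KRAS G12C (Cys-light, aa 1-169; 0.5 nM), GMPPNP-loaded, preincubated 2 h with compound (top 50 μM, 1:3, 10 points, 2% DMSO) in pH 7.4 Hepes buffer with 10 μM GMPPNP. GST-cRAF RBD (aa 50-131; 0.75 nM) plus beads were then added for 60-90 min at room temperature, and IC50 came from a 4-parameter fit.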

T1 sequence (P01116 1-169 isoform P01116-2 G12C/C51S/C80L/C118S): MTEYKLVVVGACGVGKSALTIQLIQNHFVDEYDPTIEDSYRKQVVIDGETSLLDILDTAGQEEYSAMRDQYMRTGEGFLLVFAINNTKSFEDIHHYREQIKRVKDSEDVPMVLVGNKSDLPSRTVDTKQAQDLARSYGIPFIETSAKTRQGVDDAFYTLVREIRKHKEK

SMILES | IC50 [nM]
Cc1nsc(/C=C/C(=O)N2CC[C@@H](N(C)c3nc(OC[C@@]45CCCN4C[C@H](F)C5)nc4c3C[C@H](C)[C@@H](c3nc(N)cc(C)c3C(F)(F)F)C4)C2)n1 [Example 88, (E)-1-((R)-3-(((6S,7S)-7-(6-amino-4-methyl-3-(trifluoromethyl)pyridin-2-yl)-2-(((2R,7aS)-2-fluorotetrahydro-1H-pyrrolizin-7a(5H)-yl)methoxy)-6-methyl-5,6,7,8-tetrahydroquinazolin-4-yl)(methyl)amino)pyrrolidin-1-yl)-3-(3-methyl-1,2,4-thiadiazol-5-yl)prop-2-en-1-one] | ≥ 500
Cc1cc(N)nc(-c2ncc3c(N4CCN(C#N)CC4)nc(OC[C@@]45CCCN4C[C@H](F)C5)nc3c2F)c1C(F)(F)F [Example 49, 4-(7-(6-amino-4-methyl-3-(trifluoromethyl)pyridin-2-yl)-8-fluoro-2-(((2R,7aS)-2-fluorohexahydro-1H-pyrrolizin-7a-yl)methoxy)pyrido[4,3-d]pyrimidin-4-yl)piperazine-1-carbonitrile] | 100 to 500
CN(c1nc(OC[C@@]23CCCN2C[C@H](F)C3)nc2c(F)c(-c3nc(N)cc4cccc(F)c34)ncc12)[C@@H]1CCN(C(=O)/C=C/CN2CCOCC2)C1 [Example 167, (E)-1-((R)-3-((7-(3-amino-8-fluoroisoquinolin-1-yl)-8-fluoro-2-(((2R,7aS)-2-fluorotetrahydro-1H-pyrrolizin-7a(5H)-yl)methoxy)pyrido[4,3-d]pyrimidin-4-yl)(methyl)amino)pyrrolidin-1-yl)-4-morpholinobut-2-en-1-one] | ≥ 500
CN1CC[C@@H]1/C=C/C(=O)N1CC[C@@H](N(C)c2nc(OC[C@@]34CCCN3C[C@H](F)C4)nc3c(F)c(-c4cccc(Cl)c4C4CC4)ncc23)C1 [Example 227] | < 10
C=CC(=O)N1CC[C@@H](N(C)c2nc(OC[C@@]34CCCN3C[C@H](F)C4)nc3c(F)c(-c4cccc(Cl)c4C4CC4)ncc23)C1 [Example 252] | 10 to 100
C=CC(=O)N1CC(CN(C)c2nc(OCC34CCCN3CCC4)nc3c2C[C@H](C)[C@@H](c2nc(N)cc(C)c2C(F)(F)F)C3)C1 (single isomer, unassigned) [Example 50] | ≥ 500
Cc1cc(N)nc(-c2ncc3c(N(C)[C@@H]4CCN(C(=O)/C=C/c5nc(C(C)(F)F)no5)C4)nc(OC[C@@]45CCCN4C[C@H](F)C5)nc3c2F)c1C(F)(F)F [Example 56, (E)-1-((R)-3-((7-(6-amino-4-methyl-3-(trifluoromethyl)pyridin-2-yl)-8-fluoro-2-(((2R,7aS)-2-fluorotetrahydro-1H-pyrrolizin-7a(5H)-yl)methoxy)pyrido[4,3-d]pyrimidin-4-yl)(methyl)amino)pyrrolidin-1-yl)-3-(3-(1,1-difluoroethyl)-1,2,4-oxadiazol-5-yl)prop-2-en-1-one] | < 10
Cc1cc(N)nc(-c2ncc3c(N(C)CC4CN(C(=O)/C=C/CN5CCOCC5)C4)nc(OC[C@@]45CCCN4C[C@H](F)C5)nc3c2F)c1C(F)(F)F [Example 129] | 100 to 500
Cc1noc(/C=C/C(=O)N2CC[C@@H](N(C)c3nc(OC[C@@]45CCCN4C[C@H](F)C5)nc4c3C[C@@H](C)[C@H](c3nc(N)cc(C)c3C(F)(F)F)C4)C2)n1 (single isomer, unassigned) [Example 57] | < 10
CN(CC1CN(C(=O)/C=C/c2nc(C(C)(C)O)no2)C1)c1nc(OC[C@@]23CCCN2C[C@H](F)C3)nc2c(F)c(-c3nc(N)cc4cccc(Cl)c34)ncc12 [Example 151] | < 10
C=CC(=O)N1CC[C@@H](N(C)c2nc(OC[C@@]34CCCN3C[C@H](F)C4)nc3c(F)c(-c4cc(O)cc(F)c4C4CC4)ncc23)C1 [Example 206] | < 10
CN(c1nc(OC[C@@]23CCCN2C[C@H](F)C3)nc2c(F)c(-c3cccc(Cl)c3C3CC3)ncc12)[C@@H]1CCN(C(=O)C#C[C@]2(C)CCCN2C)C1 [Example 208] | 10 to 100
C=CC(=O)N1CC[C@@H](N(C)c2nc(OC[C@@]34CCCN3C[C@H](F)C4)nc3c(F)c(-c4ccc(O)cc4C4CC4)ncc23)C1 [Example 233] | ≥ 500
CC(C)c1noc(/C=C/C(=O)N2CC[C@@H](N(C)c3nc(OC[C@@]45CCCN4C[C@H](F)C5)nc4c(F)c(-c5nc(N)cc6cccc(Cl)c56)ncc34)C2)n1 [Example 60, (E)-1-((R)-3-((7-(3-amino-8-chloroisoquinolin-1-yl)-8-fluoro-2-(((2R,7aS)-2-fluorohexahydro-1H-pyrrolizin-7a-yl)methoxy)pyrido[4,3-d]pyrimidin-4-yl)(methyl)amino)pyrrolidin-1-yl)-3-(3-isopropyl-1,2,4-oxadiazol-5-yl)prop-2-en-1-one] | < 10
Cc1noc(/C=C/C(=O)N2CC[C@@H](N(C)c3nc(OC[C@@]45CCCN4C[C@H](F)C5)nc4c3CCN(c3nc(N)cc(C)c3C(F)(F)F)C4)C2)n1 [Example 95, (E)-1-((R)-3-((7-(6-amino-4-methyl-3-(trifluoromethyl)pyridin-2-yl)-2-(((2R,7aS)-2-fluorotetrahydro-1H-pyrrolizin-7a(5H)-yl)methoxy)-5,6,7,8-tetrahydropyrido[3,4-d]pyrimidin-4-yl)(methyl)amino)pyrrolidin-1-yl)-3-(3-methyl-1,2,4-oxadiazol-5-yl)prop-2-en-1-one] | ≥ 500
Cc1noc(/C=C/C(=O)N2CC[C@@H](N(C)c3nc(OC[C@@]45CCCN4C[C@H](F)C5)nc4c(F)c(-c5nc(N)ccc5C(F)(F)F)ncc34)C2)n1 [Example 48, (E)-1-((R)-3-((7-(6-amino-3-(trifluoromethyl)pyridin-2-yl)-8-fluoro-2-(((2R,7aS)-2-fluorotetrahydro-1H-pyrrolizin-7a(5H)-yl)methoxy)pyrido[4,3-d]pyrimidin-4-yl)(methyl)amino)pyrrolidin-1-yl)-3-(3-methyl-1,2,4-oxadiazol-5-yl)prop-2-en-1-one] | 10 to 100
C=CC(=O)N1CC[C@@H](N(C)c2nc(OC[C@@]34CCCN3C[C@H](F)C4)nc3c(F)c(-c4c(O)cccc4C4CC4)ncc23)C1 [Example 218] | ≥ 500

SMILES | IC50 [nM]
C=CC(=O)N1CC[C@@H](N(C)c2nc(OC[C@@]34CCCN3C[C@H](F)C4)nc3c(F)c(-c4ncn5ccccc45)ncc23)C1 [Example 246] | ≥ 500
CN(c1nc(OC[C@@]23CCCN2C[C@H](F)C3)nc2c(F)c(-c3cccc(Cl)c3C3CC3)ncc12)[C@@H]1CCN(C(=O)C#C[C@]2(C)CCCN2)C1 [Example 193] | < 10
CN(c1nc(OC[C@@]23CCCN2C[C@H](F)C3)nc2c(F)c(-c3cccc(Cl)c3C3CC3)ncc12)[C@@H]1CCN(C(=O)C#C[C@@]2(C)CCCN2C)C1 [Example 235] | 10 to 100
Cc1noc(/C=C/C(=O)N2CC[C@@H](N(C)c3nc(OCC45CCCN4CCC5)nc4c3C[C@H](C)C(c3nc(N)cc(C)c3C(F)(F)F)C4)C2)n1 (stereo in doubt) [Example 163] | 10 to 100
C=CC(=O)N1CC[C@@H](N(C)c2nc(OC[C@@]34CCCN3C[C@H](F)C4)nc3c(F)c(-c4c(Cl)c(C)cc5[nH]ncc45)ncc23)C1 [Example 194] | 10 to 100
C=CC(=O)N1CC[C@@H](N(C)c2nc(OC[C@@]34CCCN3C[C@H](F)C4)nc3c(F)c(-c4cc(O)cnc4C4CC4)ncc23)C1 [Example 253] | ≥ 500
Cc1nsc(/C=C/C(=O)N2CC(CN(C)c3nc(OC[C@@]45CCCN4C[C@H](F)C5)nc4c3C[C@@H](C)[C@H](c3nc(N)cc(C)c3C(F)(F)F)C4)C2)n1 (single isomer, unassigned) [Example 126] | 10 to 100
C=CC(=O)N1CC[C@@H](N(C)c2nc(OC[C@@]34CCCN3C[C@H](F)C4)nc3c(F)c(-c4scnc4C)ncc23)C1 [Example 183] | ≥ 500
CN(C)C/C=C/C(=O)N1CC[C@@H](N(C)c2nc(OC[C@@]34CCCN3C[C@H](F)C4)nc3c(F)c(-c4cccc(Cl)c4C4CC4)ncc23)C1 [Example 184] | 10 to 100
C=CC(=O)N1CC[C@@H](N(C)c2nc(OC[C@@]34CCCN3C[C@H](F)C4)nc3c(F)c(-c4cccc(Cl)c4C(F)(F)F)ncc23)C1 [Example 255] | 100 to 500
Cc1cc(N)nc(-c2ncc3c(N(C)CC4CN(C(=O)/C=C/c5nc(C(C)C)no5)C4)nc(OC[C@@]45CCCN4C[C@H](F)C5)nc3c2F)c1C1CC1 [Example 175] | 100 to 500
Cc1cc(N)nc(-c2ncc3c(N(C)[C@@H]4CCN(C(=O)C#CCN5CCOCC5)C4)nc(OC[C@@]45CCCN4C[C@H](F)C5)nc3c2F)c1C(F)(F)F [Example 101] | 10 to 100
Cc1noc(/C=C/C(=O)N2CC[C@@H](N(C)c3nc(OCC45CCCN4CCC5)nc4c3C[C@@H](C)[C@H](c3nc(N)cc(C)c3C(F)(F)F)C4)C2)n1 [Example 124] | 100 to 500
CN1CC[C@@H]1/C=C/C(=O)N1CC[C@@H](N(C)c2nc(OC[C@@]34CCCN3C[C@H](F)C4)nc3c(F)c(-c4cccc(Cl)c4C(F)(F)F)ncc23)C1 [Example 242] | 10 to 100
C=CC(=O)N1CC[C@@H](N(C)c2nc(OCC34CCCN3CCC4)nc3c2C[C@@H](C)[C@H](c2nc(N)cc(C)c2C(F)(F)F)C3)C1 [Example 149, 1-((R)-3-(((6R,7R)-7-(6-amino-4-methyl-3-(trifluoromethyl)pyridin-2-yl)-6-methyl-2-((tetrahydro-1H-pyrrolizin-7a(5H)-yl)methoxy)-5,6,7,8-tetrahydroquinazolin-4-yl)(methyl)amino)pyrrolidin-1-yl)prop-2-en-1-one] | ≥ 500
CN(c1nc(OCC23CCCN2CCC3)nc2c(F)c(-c3nc(N)cc4cccc(Cl)c34)ncc12)[C@@H]1CCN(C#N)C1 [Example 66, (R)-3-((7-(3-amino-8-chloroisoquinolin-1-yl)-8-fluoro-2-((hexahydro-1H-pyrrolizin-7a-yl)methoxy)pyrido[4,3-d]pyrimidin-4-yl)(methyl)amino)pyrrolidine-1-carbonitrile] | 10 to 100
C=CC(=O)N1CC(CN(C)c2nc(OCC34CCCN3CCC4)nc3c2CC(C)C(c2nc(N)cc(C)c2C(F)(F)F)C3)C1 (stereo not shown) [Example 207] | ≥ 500

Source: patent US20260256789A1, “METHODS FOR TREATMENT OF CANCER” (Frontier Medicines Corporation, priority 2022, published 2026)
